Where two headings read alike, the source gives them in different places.
Assays:
[1] = test system: MRL/MpJ-FAS^lpr (MRL/pr) mouse model; details: 300 ng per day through the diet; cited from earlier work
[2] = test system: serum calcium; details: rat, in vivo; cited from earlier work
[3] = test system: rats with renal insufficiency; details: four times during eight days, cited from earlier work
[4] = test system: uremic rat model; assay: Uremic rat model, intraperitoneal (ip) administration of 2MD; format: in vivo
From the text: (§1) Nephrectomy Rat Model. Disease Induction. Weanling, male Sprague-Dawley rats were obtained from Harlan (Madison, Wis.). Following a 10-13 day acclimation period, the animals had two-thirds of one kidney removed. After a week, the other entire kidney was removed. The animals were then switched from a chow diet to a purified rodent diet (Suda et al., Purified Rodent Diet-Diet 11) containing 0.6% Ca and 0.9% phosphorus and fat soluble vitamins A, D, E and K. Water and diet were provided ad libitum.
(§2) Animal Husbandry. Animals were housed in suspended, plastic shoe-box style cages with corn cob bedding (prior to surgery) or in stainless steel, wire-bottom cages (approximately one week after surgery). The animal rooms were maintained at a temperature of 68 to 72° F. and a relative humidity of 25 to 75%. The holding rooms were set to provide 12 hours of light per day.
(§3) Treatment Groups. Approximately four weeks after the second surgery, animals were assigned to treatment groups (14-15 animals/group) so that each group had the same average PTH level.
(§4) Dose Preparation (Vehicle Formulation). The negative control material was prepared by volumetrically measuring ethanol (5%) and Neobee oil, mixing and then placing in storage at 2 to 8° C.
Dose Preparation (2MD Formulation). 2MD formulations (DP001, Sigma Aldrich Fine Chemicals, Madison, Wis.) were prepared by first determining the concentration of an ethanol stock solution using UV spectrophotometry (extinction coefficient=42,000; λmax=252 nm). […]
Serum Parathyroid Hormone (PTH) Levels. […] Four weeks after surgery and 4 and 8 weeks after treatment initiation, blood was collected from the tail artery and the concentration of bioactive serum PTH was measured using the rat BioActive Intact PTH ELISA Kit from Immutopics, Inc. (San Clemente, Calif.).
Serum Calcium Analysis. […] The level of calcium was determined by diluting the serum into 0.1% lanthum chloride and measuring the absorbance on an atomic absorption spectrophotometer (Perkin Elmer Model 3110, Shelton, Conn.). […]

[5] = test system: postmenopausal women; assay: Phase 1B trial, oral administration of 2MD to postmenopausal women; format: in vivo, human; details: for reduction of serum PTH levels: oral
[6] = test system: intestinal calcium transport; details: in vivo; cited from earlier work
[7] = test system: uremic rat model; format: in vivo; details: for effect on serum phosphorus levels: nephrectomized rats
From the text: as §1, §2, §3, §4
Dose Preparation (2MD Formulation). 2MD formulations (DP001, Sigma Aldrich Fine Chemicals, Madison, Wis.) were prepared by first determining the concentration of an ethanol stock solution using UV spectrophotometry (extinction coefficient=42,000; λmax=252 nm). The solutions were then volumetrically added to Neobee oil so that there was no more than 5% ethanol in the final solution. If necessary, additional ethanol was added to bring the final ethanol amount to 5%. The solution was mixed and stored at 2 to 8° C.
Dose Administration Method. Both vehicle and 2MD were administered orally to the back of the tongue at 0.5 ml/kg body weight once daily for 8 weeks, or intraperitoneally three times per week for 4 weeks.
Serum Parathyroid Hormone (PTH) Levels. By “serum PTH levels” we mean the amount of PTH released by the parathyroid gland. PTH is the most important regulator of the body's calcium and phosphorus levels, and is controlled by the level of calcium in the blood. Low blood calcium levels cause increased PTH to be released, while high blood calcium levels inhibit PTH release. Normal values are 10-55 picograms per milliliter ([…]). Four weeks after surgery and 4 and 8 weeks after treatment initiation, blood was collected from the tail artery and the concentration of bioactive serum PTH was measured using the rat BioActive Intact PTH ELISA Kit from Immutopics, Inc. (San Clemente, Calif.).
Serum Calcium Analysis. Four weeks following surgery and 4 and 8 weeks after treatment started, blood was collected from the tail artery of each experimental animal. The blood was allowed to coagulate at room temperature and then centrifuged at 3000×g for 15 minutes. The serum was transferred to a polypropylene tube and stored frozen at −20° C. The level of calcium was determined by diluting the serum into 0.1% lanthum chloride and measuring the absorbance on an atomic absorption spectrophotometer (Perkin Elmer Model 3110, Shelton, Conn.).
Phosphorus Assay. Four weeks after surgery and 8 weeks after treatment started, blood was collected from the tail artery of each experimental animal. The blood was allowed to coagulate at room temperature and then centrifuged at 3000×g for 15 minutes. The serum was transferred to a polypropylene tube and stored frozen at −20° C. The level of phosphorus was determined using a clinical analyzer (Pentra 400, Horiba ABX Diagnostics—France; UV method using phosphomolybdate).
Creatinine Assay. Measuring serum creatinine levels is a useful and inexpensive method of evaluating renal dysfunction. Creatinine is a non-protein waste product of phosphocreatinine metabolism by skeletal muscle tissue. Creatinine production is continuous and is proportional to muscle mass. […]

[8] = test system: bone calcium mobilization; details: in vivo; cited from earlier work
[9] = test system: uremic rats; details: cited from earlier work
[10] = test system: bovine parathyroid cells; details: cited from earlier work; for suppression of PTH secretion compared with 1,25-(OH)2D3: cultured bovine parathyroid cells
[11] = test system: uremic dogs; details: cited from earlier work
[12] = test system: PTH mRNA; details: in vivo; cited from earlier work

C=C1/C(=C\C=C2/CCC[C@]3(C)[C@@H]([C@H](C)CCCC(C)(C)O)CC[C@@H]23)C[C@@H](O)C[C@@H]1O [1,25-(OH)2D3, 1α,25-dihydroxyvitamin D3]
hypercalcemia [1]: severe hypercalcemia always accompanied this treatment | proteinuria [1]: completely prevents proteinuria | dose that increased serum calcium to the same magnitude [2]: 10 ng/rat/10 days | effect on serum calcium and phosphorus ([3]; 8 ng dose): induced hypercalcemia and hyperphosphatemia | effect on pre-pro-PTH mRNA and PTH secretion ([3]; 2, 4 and 8 ng): suppressed pre-pro-PTH mRNA and PTH secretion | dose at which the decrease of pre-pro-PTH mRNA and PTH secretion was statistically significant [3]: 8 ng

C=C1[C@H](O)CC(=C/C=C2\CCC[C@@]3(C)C2CCC3[C@@H](C)CCCC(C)(C)O)C[C@H]1O (stereo partly drawn) [2MD, 2-methylene-19-nor-(20S)-1α,25-dihydroxyvitamin D3]
dose at which serum calcium levels were raised ([4]; ip three times per week, FIG. 3): 10 ng/kg bw | effect on serum PTH ([4]; ip, 5 ng/kg bw three times per week, FIG. 2): prevented increases in serum PTH | effect on circulating PTH levels ([4]; ip, 10 ng/kg bw three times per week, FIG. 2): suppresses circulating PTH levels | serum calcium levels ([5]; 400 ng per day): maintaining serum calcium levels within the physiologically normal range | reduction in serum PTH levels ([5]; 400 ng per day, FIG. 13): > 60% | reduction of serum PTH levels ([5]; 110 ng once daily for 28 days): 21% | reduction of serum PTH levels ([5]; 440 ng once daily for 28 days): 67% | intestinal calcium transport activity [6]: modest increase in intestinal calcium transport activity | doses at which clinically significant serum calcium increases are observed ([7]; male, Sprague-Dawley, rat, in vivo, po, 8 weeks): 5 ng/kg bw | effect on serum PTH levels ([7]; oral, daily doses of 1-5 ng/kg bw, FIG. 5): prevented an increase or effected a reduction in serum PTH levels | serum creatinine levels compared to Vehicle control animals ([7]; oral, daily doses of 1-5 ng/kg bw, FIG. 11): resulted in lower serum creatinine levels | effect on serum phosphorus levels ([7]; oral, daily doses of 1-5 ng/kg bw, FIG. 9): reduced serum phosphorus levels | bone calcium mobilization activity [8]: 10-100 times that of 1α,25-(OH)2D3

C=C1/C(=C\C=C2/CCC[C@]3(C)[C@@H]([C@H](C)OCCC(C)(C)O)CC[C@@H]23)C[C@@H](O)C[C@@H]1O [22-oxacalcitriol]
serum PTH [9]: suppress serum PTH | suppression of PTH secretion compared with 1,25-(OH)2D3 [10]: nearly as effective as 1,25-(OH)2D3 | serum PTH [11]: suppress serum PTH | suppression of PTH mRNA [12]: could suppress PTH mRNA

C=C1C(=CC=C2CCCC3(C)C2CCC3C(C)CCCCCC(C)(C)O)CC(O)CC1O (stereo not drawn) [1,25-(OH)2-24-dihomo-D3]
suppression of PTH secretion compared with 1,25-(OH)2D3 [10]: nearly as effective as 1,25-(OH)2D3

C=C1C(=CC=C2CCCC3(C)C2CCC3C(C)C=CCCCCC(C)(C)O)CC(O)CC1O (stereo not drawn) [1,25-(OH)2-24-trihomo-22-ene-D3]
suppression of PTH secretion compared with 1,25-(OH)2D3 [10]: nearly as effective as 1,25-(OH)2D3

C[C@H](/C=C/[C@H](C)C(C)(C)O)[C@H]1CC[C@H]2/C(=C/C=C3C[C@@H](O)C[C@H](O)C3)CCC[C@]12C [Zemplar®, 19-nor-1α,25-dihydroxy-ergocalciferol]
dose that increased serum calcium to the same magnitude [2]: 100 ng/rat/10 days | suppression on PTH release ([10]; 10^−7M): 52% | serum creatinine levels compared to Vehicle control animals ([7]; oral Zemplar): lowered serum creatinine levels compared to Vehicle control animals, however, only at dose levels that significantly increased serum calcium | effect on serum phosphorus levels ([7]; oral Zemplar): did not reduce serum phosphorus levels | duration of the effect on serum PTH ([7]; oral daily treatment for up to 8 weeks): the therapeutic effect was lost as the disease progressed | effect on serum PTH levels ([7]; oral, daily doses of 30-300 ng/kg bw, FIG. 6): prevented an increase in serum PTH levels | changes in serum ionized calcium or serum phosphorus ([3]; 8, 25 and 75 ng): none of the doses of 19-nor-1,25-(OH)2D2 produced statistically significant changes

C=C1/C(=C\C=C2/CCC[C@]3(C)C([C@H](C)CC#CC(C)(C)O)=CC[C@@H]23)C[C@@H](O)C[C@@H]1O [1,25-(OH)2-16-ene-23-yne-D3]
suppression of PTH secretion compared with 1,25-(OH)2D3 [10]: nearly as effective as 1,25-(OH)2D3
